Reference: patent publication US7932239B2, “Methods of and compositions for reducing neuronal cell death” (Wisconsin Alumni Research Foundation, priority 2005, dated 2011)

Tests used:
[1] = test system: retinal ganglion cells (RGCs); details: previous studies, cited from earlier work
[2] = test system: retinal ganglion cells (RGCs); test: Viability of acutely axotomized retinal ganglion cells in culture (DAPI retrograde labeling, calcein-AM staining) at 72 hours; assay type: cell-based, rat; details: for rescue of RGCs (in words): at 100 μM
Procedure: DAPI binds to nuclear DNA and fluoresces under UV light. At postnatal days eleven to thirteen, the animals were sacrificed by decapitation, the eyes enucleated, and the retinas dissected in Hank's balanced salt solution (HBSS). After two incubations in enzyme solution containing papain (3.7 U/ml), each for 30 minutes at 37° C., the retinas were gently triturated with a Pasteur pipette and plated on poly-L-lysine-coated 96-well flat-bottomed tissue culture plates (0.32 cm^2 surface area/well) at a density of approximately 2000 cells/mm^2. The cells were cultured for 72 hours in Neurobasal-A, B27 supplement lacking antioxidants in a humidified 5% CO2 incubator at 37° C.
Retinal Ganglion Cell Identification and Counting: RGCs were identified by the presence of DAPI, which appears blue when viewed with appropriate filters under epifluorescence. Cell viability was determined by metabolism of calcein-AM, which produces a green fluorescence when viewed with fluorescein filters. Cells were incubated in a 1 μM solution of calcein-AM in phosphate-buffered saline (PBS) for 30 minutes, after which the medium was replaced with fresh PBS. Wells were counted in duplicate or in triplicate.
Statistical Analysis: All RGC viability calculations were normalized to the control (no treatment) condition by dividing the mean number of living RGCs in an experimental condition by the mean in controls. Comparisons were by unpaired t-test.

[3] = test system: RGCs; test: RGC death after optic nerve crush in vivo, intravitreal injection, RGC density in retinal whole mounts; design: species or system rat; details: 7 to 14 days after optic nerve crush, written in present tense
Procedure: Optic Nerve Crush Surgery and Intravitreal Injections: Surgeries are conducted on adult (i.e. eight to twelve week old) rats that have previously received 1,1′-dioctadecyl-3,3,3′,3′-tetramethylindocarbocyanine (DiI) injections. All surgeries are done aseptically and are performed on the left eye only. Animals are anesthetized with a mixture of ketamine and xylazine. A limited lateral canthotomy is performed. The conjunctiva is then incised at the limbus and the subtenons space bluntly dissected posteriorly. […] The muscle cone is then entered and the optic nerve exposed. A longitudinal incision is made along the meningeal sheath to expose the optic nerve axons and to avoid disturbing the retinal blood supply. The axons of the optic nerve are then crushed with blunt forceps for 5 seconds 2 mm posterior to the globe under direct visualization. […]
RGC Density Determination: Retinal wholemounts are imaged with an Axiocarn HRc digital camera attached to a Zeiss Axiophot fluorescent microscope. […] The density of RGCs/mm^2 is determined by counting labeled DiI cells in three areas per retinal quadrant at three different eccentricities of the retinal radius for a total of twelve regions per retina. Cells positive for both DiI and BSL-I, as determined by bright yellow labeling when DiI (red) and BSL-I (green) images are merged, are subtracted from the total DiI count. […]

[4] = test system: RGCs; details: after one to twelve weeks; written in present tense
From the text: Unilateral experimental glaucoma is induced in the rat using the Quigley protocol for laser ablation of the trabecular meshwork and of the circumferential episcleral vessels. […] The animals are anesthetized as in Example 2. A diode laser at 532 nm (0.2-0.4 watts and 0.3-0.7 second duration, depending on degree of pigmentation) is used to administer laser treatment at the trabecular meshwork and at the episcleral veins draining the perilimbal vessel plexus of vessel. In case a milder IOP rise is required, animals can be treated only at the trabecular meshwork. The laser treatment is repeated at 1 week if the IOP difference between the treated eye and the untreated eye is less than 6 mm Hg. Following laser treatment, sterile drug (i.e. PB1 or PB2) or control (BSS) is administered.
IOP is measured by putting a drop of 0.5% proparacaine in the eye, gently cradling the rat and touching the anesthetized eye with a Tonopen tonometer tip for a fraction of a second, usually for 3±2 times, more if the standard deviation is high. […] Depending on the experiment, the IOP is initially measured daily and then weekly.
After one to twelve weeks animals are sacrificed and RGC counts are performed as described in Example 2.

[5] = test system: RGCs; details: injected intravitreally into adult rats, previous studies; cited from earlier work
[6] = at 1 μM and 100 μM, 72 hours, p<0.05

## O[C@H](CS)[C@H](O)CS (racemic) [DTT, dithiothreitol]
[1]
  effectiveness at nanomolar concentrations (in words): not effective

## O=C(O)c1ccccc1P(c1ccccc1)c1ccccc1 [2DPBA, 2-(diphenylphosphino)benzoic acid]
[2]; 10 nM, 72 hours
  relative RGC survival (compared to control): 216±18%
[2]; [6]
  neuroprotection of RGCs (in words): significant protection
[2]; dose response, 72 hours
  concentration at which neuroprotective for RGCs (lowest): 10 nM

## O=S(=O)([O-])c1cccc(P(c2cccc(S(=O)(=O)[O-])c2)c2cccc(S(=O)(=O)[O-])c2)c1.[Na+].[Na+].[Na+] [3BSA, 3,3′,3″-phosphinidynetris(benzene-sulfonic acid) trisodium salt]
[2]; 100 μM, 72 hours
  relative RGC survival (compared to control): 206±6%
[2]; 72 hours
  rescue of RGCs (in words): rescue RGCs

## O=C(O)c1ccc(P(c2ccccc2)c2ccccc2)cc1 [4DPBA, 4-(diphenylphosphino)benzoic acid]
[2]; 1 μM, 72 hours
  relative RGC survival (compared to control): 183±19%
[2]; [6]
  neuroprotection of RGCs (in words): neuroprotection

## [BH3-][P+](CCC(=O)OC)(CCC(=O)OC)c1ccccc1 [PB1, bis(3-propionic acid methyl ester)phenylphosphine borane complex]
[3]
  RGC density compared to controls (in words): greater RGC density
[2]; 1 nM, 72 hours after axotomy
  relative RGC survival (compared to control): 174±12%
[2]; at picomolar concentrations, 72 hours
  neuroprotection of RGCs (in words): highly effective
[2]; dose response, 72 hours
  concentration at which neuroprotective for RGCs (lowest): ≥ 1 nM
[4]
  RGC cell death compared to controls (in words): attenuated

## [BH3-][P+](CCC(=O)OC)(c1ccccc1)c1ccccc1 [PB2, (3-propionic acid methyl ester)diphenylphosphine borane complex]
[3]
  RGC density compared to controls (in words): greater RGC density
[2]; 10 pM, 72 hours after axotomy
  relative RGC survival (compared to control): 180±10%
[2]; dose response 1 pM to 100 μM, 72 hours
  concentration at which neuroprotective for RGCs (lowest): ≥ 0.01 nM
[4]
  RGC cell death compared to controls (in words): attenuated

## O=C(O)CCP(CCC(=O)O)CCC(=O)O [TCEP, tris-(2-carboxyethyl) phosphine]
[2]; 72 hours
  rescue of RGCs (in words): mildly rescued RGCs
[5]
  RGC death after optic nerve crush (in words): inhibited RGC death
[1]
  effectiveness at nanomolar concentrations (in words): not effective
  concentration required for RGC neuroprotection: ~100 µM
